Experimental data reported in US6525040B1, “Cyclic organoselenium compounds, their preparation and their uses” (Oxis Isle of Man, Limited, priority 1996, dated 2003).

How the values were obtained:
[1] = test system: TNF-α-induced P-selectin expression by endothelial cells (HUVEC); experiment: Inhibition of TNF-α-induced P-selectin expression by endothelial cells (cell ELISA); assay type: cell-based; details: compound 10 μM; TNF-α 1 ng/ml; 3 h 30 min incubation; human endothelial cells
Experimental: (§1) Human endothelial cells are grown under the same conditions as those described in Example 6.
(§2) When the cells are close to confluence, they are incubated for one hour in the presence or in the absence of one of the following compounds: BXT-51097 or BXT-51103. Each one of these compounds is incorporated at 10 μM in the culture medium containing 2% foetal calf serum, everything else being equal. After the removal of the culture medium, the cells are incubated in the presence or in the absence (control) of TNF-α, at 1 ng/ml, in the same culture medium as before. In the case of cells pre-treated with a compound, the medium further contains the same compound at 10 μM. After three hours and thirty minutes of incubation, the cells are washed with PBS buffer and they are fixed with 2% formaldehyde in the same buffer. The P- and E-selectin expressions on the cells are then measured by an ELISA determination by successively incubating the cells in the presence of a mouse monoclonal antibody, anti-P-selectin and anti-E-selectin respectively, and a rabbit anti-mouse anti-antibody labelled with alkaline phosphatase. The quantification is carried out upon the addition of para-nitrophenyl phosphate whose hydrolysis is followed at 405 nm.

[2] = Glutathione peroxidase activity (NADPH-coupled, GSH/glutathione disulphide reductase); assay type: biochemical; details: compound 20 μM, pH = 7.3, 37° C., [GSH] = 2 mM; for Glutathione peroxidase activity, H2O2: substrate H2O2; for Glutathione peroxidase activity, t-BuOOH: substrate t-BuOOH
Experimental: The glutathione peroxidase activity is determined by using a 50 mM HEPES buffer, pH=7.3 (at 37° C.), containing 0.2 mM DTPA, 0.144 mM NADPH, 2.2 mM reduced glutathione (GSH) and 1.1 U/ml glutathione disulphide reductase. This buffer further contains 110 U/ml catalase when hydrogen peroxide is not used as substrate.
To 1.5 ml of the buffer described above, are added 100 μl of an ethanolic stock solution of the compound tested or 100 μl of absolute ethanol (blank). Each compound is tested at a final concentration of 20 μM. The reaction medium is equilibrated for 2 minutes at 37° C. Then 50 μl of 6.6 mM tert-butyl hydroperoxide (t-BuOOH) in ultrapure water, or 3.3 mM hydrogen peroxide (H2O2) in ultrapure water are added. The glutathione peroxidase activity is determined at 37° C. by measuring the decrease of absorbance at 340 nm for 5 minutes. Said activity or initial enzymatic rate is proportional to the slope of the variation of absorbance with time.
The catalytic activity of oxygen reduction of the compounds tested corresponds to the rate of consum.p.ion of NADPH in the absence of hydroperoxide.
They are expressed in nmoles of hydroperoxide reduced per minute.

[3] = test system: TNF-α-induced interleukin 8 release by endothelial cells (HUVEC); experiment: Inhibition of the TNF-α-induced release of interleukin 8 by endothelial cells (ELISA); assay type: cell-based; details: compound 10 μM, TNF-α 1 ng/ml, 3 h 30 min incubation, human endothelial cells, read-out: Inhibition of TNF-α-induced IL-8 production in the culture medium
Experimental: Human endothelial cells are grown at 37° C. in multi-well plates under a water-saturated atmosphere constituted of a gaseous mixture of 95% air and 5% CO2. Their culture medium is constituted by a medium M 199 pH=7.4 containing 20% foetal calf serum, 2 mM L-glutamine, 100 U/ml penicillin, 100 μg/ml streptomycin and 1% by volume of a medium supplement containing heparin and a growth factor for these cells.
When the cells are close to confluence, they are incubated for one hour in the presence or in the absence of one of the following compounds: BXT-51097 or BXT-51103. Each one of these compounds is incorporated at 10 μM in the culture medium containing 2% foetal calf serum, everything else being equal. After removal of the culture medium, the cells are incubated in the presence or in the absence (control) of TNF-α, at 1 ng/ml, in the same culture medium as before. In the case of cells pre-treated with a compound of the invention, the medium further contains the same compound at 10 μM. After three hours and thirty minutes of incubation, the interleukin 8 (IL-8) released into the culture medium is determined by ELISA.

[4] = test system: TNF-α-induced E-selectin expression by endothelial cells (HUVEC); experiment: Inhibition of TNF-α-induced E-selectin expression by endothelial cells (cell ELISA); assay type: cell-based; details: compound 10 μM; TNF-α 1 ng/ml; 3 h 30 min incubation; human endothelial cells
Experimental: as §1, §2

[5] = even in the presence of an excess of glutathione GSH; cited from earlier work

| Compound | Inhibition of TNF-α-induced P-selectin expression [1] | Glutathione peroxidase activity, H2O2 [2] | Glutathione peroxidase activity, t-BuOOH [2] | inhibition at 10 µM [3] | Inhibition of TNF-α-induced E-selectin expression [4] | Solubility in water [5] |
| --- | --- | --- | --- | --- | --- | --- |
| CC1(C)CN[Se]c2sccc21 [BXT-51097, 4,4-Dimethyl-thieno-[3,2-e]-isoselenazine] | totally inhibited | 39.8 nmoles of hydroperoxide reduced/min | 11.4 nmoles of hydroperoxide reduced/min | ≥ 85% | totally inhibited | – |
| CC1(C)CN[Se](=O)c2sccc21 (stereo not drawn) [BXT-51100, 4,4-Dimethyl-thieno-[3,2-e]-isoselenazine-1-oxide] | – | 37.1 nmoles of hydroperoxide reduced/min | 10.1 nmoles of hydroperoxide reduced/min | – | – | – |
| CC1(C)CN[Se]c2ccsc21 [BXT-51103, 4,4-Dimethyl-thieno-[2,3-e]-isoselenazine] | totally inhibited | 34.9 nmoles of hydroperoxide reduced/min | 15.5 nmoles of hydroperoxide reduced/min | ≥ 85% | totally inhibited | – |
| CC1(C)CN[Se](=O)c2ccsc21 (stereo not drawn) [BXT-51105, 4,4-Dimethyl-thieno-[23-e]-isoselenazine-1-oxide] | – | 35.7 nmoles of hydroperoxide reduced/min | 13.9 nmoles of hydroperoxide reduced/min | – | – | – |
| O=c1c2ccccc2[se]n1-c1ccccc1 [ebselen, 2-phenyl-1,2-benzisoselenazolin-3-one] | – | – | – | – | – | very little soluble in water |
